Data on 34 molecules can be found in US20260062376A1, “SQUARAMIDE DERIVATIVES AS CB1 ALLOSTERIC MODULATORS” (RESEARCH TRIANGLE INSTITUTE, priority 2022, published 2026).

Chain of Human CB1 (P21554 whole entry): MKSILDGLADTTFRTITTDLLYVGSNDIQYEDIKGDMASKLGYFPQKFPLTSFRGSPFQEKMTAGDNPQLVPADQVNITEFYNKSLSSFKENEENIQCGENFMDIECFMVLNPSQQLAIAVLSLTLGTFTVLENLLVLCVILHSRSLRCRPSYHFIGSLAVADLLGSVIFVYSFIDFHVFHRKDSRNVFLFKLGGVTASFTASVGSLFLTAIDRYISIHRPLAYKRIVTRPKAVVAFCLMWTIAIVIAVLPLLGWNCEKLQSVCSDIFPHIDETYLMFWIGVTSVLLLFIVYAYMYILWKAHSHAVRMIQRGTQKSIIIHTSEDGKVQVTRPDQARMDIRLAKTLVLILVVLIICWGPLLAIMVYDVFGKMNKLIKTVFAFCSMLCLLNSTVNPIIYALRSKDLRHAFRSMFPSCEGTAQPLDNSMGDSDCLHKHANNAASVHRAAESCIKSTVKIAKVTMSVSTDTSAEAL

The target of this experiment is Human CB1 (Homo sapiens (Human), UniProt P21554). The experiment can be described thus: Calcium mobilization assay (antagonist mode vs CP55,940). In kind it is cell-based. The following applies: CHO-RD-HGA16 cells stably expressing human CB1; against EC50 concentration of CP55,940; mean ± SEM, at least three experiments. On the procedure:
Calcium Mobilization Assay: CHO-RD-HGA16 cells (Molecular Devices, San Jose, California, United States of America) stably expressing the human CB1 receptor were plated into 96-well black-walled assay plates at 25,000 cells/well in 100 μL of Ham's F12 (supplemented with 10% fetal bovine serum, 100 units of penicillin/streptomycin, and 100 μg/mL Normocin) and incubated overnight at 37° C., 5% CO2. Calcium 5 dye (Molecular Devices, San Jose, California, United States of America) was reconstituted according to the manufacturer's instructions. The reconstituted dye was diluted 1:40 in prewarmed (37° C.) assay buffer (lx HBSS, 20 mM HEPES, 2.5 mM probenecid, pH 7.4 at 37° C.). Growth medium was removed, and the cells were gently washed with 100 μL of prewarmed (37° C.) assay buffer. […] After the pretreatment incubation period, the plate was read with a FLIPR Tetra (Molecular Devices, San Jose, California, United States of America). […] Relative fluorescence units (RFU) were plotted against the log of compound concentrations. […] Test compound RFUs were compared to the CP55,940 Emax RFUs to generate % Emax values. For the CB2 agonist and antagonist assays, the same procedures were followed except that stable human CB2—CHO-RD-HGA16 cells were used.
Data Analysis: For calcium mobilization experiments, data were fit to a three-parameter logistic curve to generate IC50 values (GraphPad Prism 6.0, Graphpad Software, San Diego, California, United States of America). For [^35S]GTPγS experiments, data were normalized to maximal CP55,940 (100 nM) stimulation in the absence of test compound (i.e., vehicle=100%).
Background: Calcium assays in cells follow changes in intracellular calcium, usually with a dye or a luminescent sensor.
`O=c1c(NCCCc2ccccc2)c(Nc2ccc(Cl)cc2)c1=O` [Compound 12, 3-[(4-Chlorophenyl)amino]-4-[(3-phenylpropyl)amino]cyclobut-3-ene-1,2-dione]: the IC50 (in general, the midpoint of a concentration-inhibition curve) was found to be 1.04 ± 0.359 µM.
`O=c1c(NCCc2ccc(Cl)cc2)c(Nc2ccc(Cl)cc2)c1=O` [Compound 13, 3-[(4-Chlorophenyl)amino]-4-{[2-(4-chlorophenyl)ethyl]amino}cyclobut-3-ene-1,2-dione]: the 50% inhibitory concentration (IC50) was found to be 0.222 ± 0.035 µM.
Regarding `Cc1cccc(CCNc2c(Nc3ccc(Cl)cc3)c(=O)c2=O)c1` [Compound 14, 3-[(4-Chlorophenyl)amino]-4-{[2-(3-methylphenyl)ethyl]amino}cyclobut-3-ene-1,2-dione], the IC50 is 0.205 ± 0.041 µM.
Regarding `Cc1ccc(CCNc2c(Nc3ccc(Cl)cc3)c(=O)c2=O)cc1` [Compound 15, 3-[(4-Chlorophenyl)amino]-4-{[2-(4-methylphenyl)ethyl]amino}cyclobut-3-ene-1,2-dione], the IC50 turned out to be 0.164 ± 0.03 µM.
For the molecule `COc1ccccc1CCNc1c(Nc2ccc(Cl)cc2)c(=O)c1=O` [Compound 16, 3-[(4-Chlorophenyl)amino]-4-{[2-(2-methoxyphenyl)ethyl]amino}cyclobut-3-ene-1,2-dione], the IC50 was 1.11 ± 0.088 µM.
In the case of `COc1cccc(CCNc2c(Nc3ccc(Cl)cc3)c(=O)c2=O)c1` [Compound 17, 3-[(4-Chlorophenyl)amino]-4-{[2-(3-methoxyphenyl)ethyl]amino}cyclobut-3-ene-1,2-dione], the IC50 was 0.35 ± 0.039 µM.
For `COc1ccc(CCNc2c(Nc3ccc(Cl)cc3)c(=O)c2=O)cc1` [Compound 18, 3-[(4-Chlorophenyl)amino]-4-{[2-(4-methoxyphenyl)ethyl]amino}cyclobut-3-ene-1,2-dione], the 50% inhibitory concentration (IC50) was determined as 0.734 ± 0.31 µM.
The value for `O=c1c(NCCc2ccccc2C(F)(F)F)c(Nc2ccc(Cl)cc2)c1=O` [Compound 19, 3-[(4-Chlorophenyl)amino]-4-({2-[2-(trifluoromethyl)phenyl]ethyl}amino)cyclobut-3-ene-1,2-dione] was 0.933 µM; that for `O=c1c(NCCc2cccc(C(F)(F)F)c2)c(Nc2ccc(Cl)cc2)c1=O` [Compound 20, 3-[(4-Chlorophenyl)amino]-4-({2-[3-(trifluoromethyl)phenyl]ethyl}amino)cyclobut-3-ene-1,2-dione] was 0.36 ± 0.065 µM; that for `O=c1c(NCCc2ccc(C(F)(F)F)cc2)c(Nc2ccc(Cl)cc2)c1=O` [Compound 21, 3-[(4-Chlorophenyl)amino]-4-({2-[4-(trifluoromethyl)phenyl]ethyl}amino)cyclobut-3-ene-1,2-dione] was 0.275 ± 0.013 µM.
For `O=c1c(NCCc2ccc(F)cc2)c(Nc2ccc(Cl)cc2)c1=O` [Compound 22, 3-[(4-Chlorophenyl)amino]-4-{[2-(4-fluorophenyl)ethyl]amino}cyclobut-3-ene-1,2-dione] the value was 0.337 ± 0.021 µM; for `O=c1c(NCCc2ccccc2Cl)c(Nc2ccc(Cl)cc2)c1=O` [Compound 23, 3-[(4-Chlorophenyl)amino]-4-{[2-(2-chlorophenyl)ethyl]amino}cyclobut-3-ene-1,2-dione], 1.29 ± 0.201 µM.
As to `O=c1c(NCCc2ccccc2F)c(Nc2ccc(Cl)cc2)c1=O` [Compound 24, 3-[(4-Chlorophenyl)amino]-4-{[2-(2-fluorophenyl)ethyl]amino}cyclobut-3-ene-1,2-dione], the IC50 was 0.274 ± 0.033 µM.
For `O=c1c(NCCc2cccc(F)c2)c(Nc2ccc(Cl)cc2)c1=O` [Compound 25, 3-[(4-Chlorophenyl)amino]-4-{[2-(3-fluorophenyl)ethyl]amino}cyclobut-3-ene-1,2-dione], the IC50 turned out to be 0.286 ± 0.028 µM.
For `CN(C)c1cccc(CCNc2c(Nc3ccc(Cl)cc3)c(=O)c2=O)c1` [Compound 26, 3-[(4-Chlorophenyl)amino]-4-({2-[3-(dimethylamino)phenyl]ethyl}amino)cyclobut-3-ene-1,2-dione] the value was 2.1 ± 0.272 µM; for `CN(C)c1ccc(CCNc2c(Nc3ccc(Cl)cc3)c(=O)c2=O)cc1` [Compound 27, 3-[(4-Chlorophenyl)amino]-4-({2-[4-(dimethylamino)phenyl]ethyl}amino)cyclobut-3-ene-1,2-dione], 0.535 ± 0.135 µM; for `O=c1c(Nc2ccc(Cl)cc2)c(Nc2cccc(-c3ccccc3)c2)c1=O` [Compound 29, 3-(Biphenyl-3-ylamino)-4-[(4-chlorophenyl)amino]cyclobut-3-ene-1,2-dione], 0.408 ± 0.094 µM.
Take `O=c1c(Nc2ccc(Cl)cc2)c(Nc2cccc(-c3cscn3)c2)c1=O` [Compound 31, 3-[(4-Chlorophenyl)amino]-4-{[3-(1,3-thiazol-4-yl)phenyl]amino}cyclobut-3-ene-1,2-dione]: the IC50 was 0.154 ± 0.014 µM.
For `O=c1c(Nc2ccc(Cl)cc2)c(Nc2cccc(-c3ccsc3)c2)c1=O` [Compound 32, 3-[(4-Chlorophenyl)amino]-4-{[3-(thiophen-3-yl)phenyl]amino}cyclobut-3-ene-1,2-dione], the IC50 was determined as 0.463 ± 0.056 µM.
Consider `O=c1c(Nc2ccc(Cl)cc2)c(Nc2ccc(-c3ccccc3)cc2)c1=O` [Compound 34, 3-(Biphenyl-4-ylamino)-4-[(4-chlorophenyl)amino]cyclobut-3-ene-1,2-dione], for which the IC50 was 1.48 ± 0.297 µM.
For `Cc1ccccc1CCNc1c(Nc2ccc(Cl)cc2)c(=O)c1=O` [Compound 35, 3-[(4-Chlorophenyl)amino]-4-{[2-(2-methylphenyl)ethyl]amino}cyclobut-3-ene-1,2-dione] the value was 0.353 ± 0.037 µM; for `O=c1c(NCCc2ccccn2)c(Nc2ccc(Cl)cc2)c1=O` [Compound 36, 3-[(4-Chlorophenyl)amino]-4-{[2-(pyridin-2-yl)ethyl]amino}cyclobut-3-ene-1,2-dione], 0.958 ± 0.06 µM; for `O=c1c(NCCc2ccncc2)c(Nc2ccc(Cl)cc2)c1=O` [Compound 37, 3-[(4-Chlorophenyl)amino]-4-{[2-(pyridin-4-yl)ethyl]amino}cyclobut-3-ene-1,2-dione], above 10 µM.
On to `O=c1c(NCCc2ccc(Br)cc2)c(Nc2ccc(Cl)cc2)c1=O` [Compound 38, 3-[(4-Chlorophenyl)amino]-4-{[2-(4-bromophenyl)ethyl]amino}cyclobut-3-ene-1,2-dione], for which the half-inhibitory concentration (IC50) was 0.333 ± 0.007 µM.
For `O=c1c(NCCc2cccs2)c(Nc2ccc(Cl)cc2)c1=O` [Compound 39, 3-[(4-Chlorophenyl)amino]-4-{[2-(thiophen-2-yl)ethyl]amino}cyclobut-3-ene-1,2-dione] the value was 0.399 ± 0.022 µM; for `O=c1c(NCCc2ccc(Cl)c(Cl)c2)c(Nc2ccc(Cl)cc2)c1=O` [Compound 41, 3-[(4-Chlorophenyl)amino]-4-{[2-(3,4-dichlorophenyl)ethyl]amino}cyclobut-3-ene-1,2-dione], 0.877 ± 0.031 µM; for `Cc1ccc(CCNc2c(Nc3ccc(Cl)cc3)c(=O)c2=O)cc1C` [Compound 42, 3-[(4-Chlorophenyl)amino]-4-{[2-(3,4-dimethylphenyl)ethyl]amino}cyclobut-3-ene-1,2-dione], 0.408 ± 0.066 µM.
In the case of `O=c1c(NCCc2cccc(O)c2)c(Nc2ccc(Cl)cc2)c1=O` [Compound 43, 3-[(4-Chlorophenyl)amino]-4-{[2-(3-hydroxyphenyl)ethyl]amino}cyclobut-3-ene-1,2-dione], the IC50 is 2.07 ± 0.204 µM.
For the molecule `O=c1c(NCCc2ccc(Cl)cc2Cl)c(Nc2ccc(Cl)cc2)c1=O` [Compound 44, 3-[(4-Chlorophenyl)amino]-4-{[2-(2,4-dichlorophenyl)ethyl]amino}cyclobut-3-ene-1,2-dione], the IC50 was determined as 1.14 ± 0.183 µM.
The value for `O=c1c(NCCN2CCCCC2)c(Nc2ccc(Cl)cc2)c1=O` [Compound 45, 3-[(4-Chlorophenyl)amino]-4-{[2-(piperidin-1-yl)ethyl]amino}cyclobut-3-ene-1,2-dione] was above 10 µM; that for `CCN(CC)c1ccc(CCNc2c(Nc3ccc(Cl)cc3)c(=O)c2=O)cc1` [Compound 48, 3-[(4-Chlorophenyl)amino]-4-({2-[4-(diethylamino)phenyl]ethyl}amino)cyclobut-3-ene-1,2-dione] was 0.639 ± 0.247 µM; that for `O=c1c(NCCc2ccc(N3CCCCC3)cc2)c(Nc2ccc(Cl)cc2)c1=O` [Compound 49, 3-[(4-Chlorophenyl)amino]-4-{[2-(4-piperidin-1-ylphenyl)ethyl]amino}cyclobut-3-ene-1,2-dione] was above 10 µM.
The value for `O=c1c(NCCc2ccc(N3CCCC3)cc2)c(Nc2ccc(Cl)cc2)c1=O` [Compound 50, 3-[(4-Chlorophenyl)amino]-4-{[2-(4-pyrrolidin-1-ylphenyl)ethyl]amino}cyclobut-3-ene-1,2-dione] was above 10 µM; that for `O=c1c(NCCc2ccc(N3CCC3)cc2)c(Nc2ccc(Cl)cc2)c1=O` [Compound 51, 3-{[2-(4-Azetidin-1-ylphenyl)ethyl]amino}-4-[(4-chlorophenyl)amino]cyclobut-3-ene-1,2-dione] was above 10 µM.
